Consider 23 compounds from patent US9604996B2 (Bayer Pharma Aktiengesellschaft, priority 2013, dated 2017).

Experiment [1] relates to IL-6 release by human fibroblast cell line LL29. Kind of experiment: NECA-induced IL-6 release by LL29 fibroblasts (ELISA). In kind it is cell-based. As to conditions: NECA 10 μM, 24 hours incubation, IL-6 ELISA of supernatant, in some cases means, rounded to two significant digits. Here is the method:
B-2. Measurement of NECA-Induced IL-6 Release by LL29 Fibroblasts
Stimulation of fibroblasts with adenosine or the adenosine analog 5′-N-ethylcarboxamidoadenosine (NECA) leads to release of the pro-inflammatory and pro-fibrotic cytokine IL-6 which can be prevented by inhibition of the A2b receptor.
Accordingly, confluent cells of the human fibroblast cell line LL29 were treated with the test substances and stimulated with NECA (10 μM). After an incubation time of 24 hours, the cell supernatant is removed and human IL-6 in the cell supernatant is determined by ELISA (Quantikine® IL6 ELISA, R&D Systems, Minneapolis, USA).
On the technique in general: In an ELISA, binding on a coated surface is turned into a signal by an enzyme label.

Experiment [2] addresses T1, human adenosine A2b receptor (Homo sapiens, UniProt P29275).
T1 construct: expressed in transfected cells; host or cells: CHO-K1 (Chinese Hamster Ovary) with CRE-luciferase reporter
T1 sequence (P29275 1-332): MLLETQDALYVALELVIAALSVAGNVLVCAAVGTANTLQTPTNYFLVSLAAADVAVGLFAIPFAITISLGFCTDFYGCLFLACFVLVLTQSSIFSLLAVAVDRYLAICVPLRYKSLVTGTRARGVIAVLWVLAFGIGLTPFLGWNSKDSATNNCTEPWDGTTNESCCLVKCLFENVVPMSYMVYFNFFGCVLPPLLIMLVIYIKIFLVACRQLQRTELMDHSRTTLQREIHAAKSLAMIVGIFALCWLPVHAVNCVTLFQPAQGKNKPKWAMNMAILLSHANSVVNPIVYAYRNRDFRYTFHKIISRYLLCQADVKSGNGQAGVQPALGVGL
The experiment can be described thus: Cellular reporter gene (CRE-luciferase) A2b receptor antagonist assay in recombinant CHO-K1 cells stimulated with NECA. In kind it is cell-based. As to conditions: recombinant CHO-K1 cell line, co-incubation with EC50 concentration of NECA, 3 hours, in some cases means, rounded to two significant digits. The method, boiled down:
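CHO-K1 cells expressing human A2b receptor with a CRE-driven firefly luciferase reporter, co-incubated with test compound and NECA at its same-day EC50 concentration. Luminescence read 3 hours after NECA addition.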
For orientation: In a reporter assay the amount or activity of a reporter protein is the signal.

The term IC50 denotes the midpoint of a concentration-inhibition curve.

`Cc1c(C(=O)N2CCC(O)CC2)sc2c1c(=O)n(CCc1ccccc1Cl)c(=O)n2CCC(F)(F)F` [Example 6, 3-[2-(2-Chlorophenyl)ethyl]-6-[(4-hydroxypiperidin-1-yl)carbonyl]-5-methyl-1-(3,3,3-trifluoropropyl)thieno [2,3-d]pyrimidine-2,4(1H,3H)-dione]: the IC50 in experiment [1] amounted to 27 nM; in experiment [2], 13 nM.
The corresponding values for `Cc1ccccc1CCn1c(=O)c2c(C)c(C(=O)N3CCC(O)CC3)sc2n(CCC(F)(F)F)c1=O` [Example 8, 6-[(4-Hydroxypiperidin-1-yl)carbonyl]-5-methyl-3-[2-(2-methylphenyl)ethyl]-1-(3,3,3-trifluoropropyl)thieno[2,3-d]pyrimidine-2,4(1H,3H)-dione] are 34 nM and 20 nM.
In the case of `O=C1CN(C(=O)c2sc3c(c2C(F)(F)F)c(=O)n(CCc2ccccc2)c(=O)n3CCC(F)(F)F)CCN1` [Example 41, 6-[(3-Oxopiperazin-1-yl)carbonyl]-3-(2-phenylethyl)-5-(trifluoromethyl)-1-(3,3,3-trifluoropropyl)thieno[2,3-d]pyrimidine-2,4(1H,3H)-dione], the IC50 amounted to 29 nM in experiment [1] and 26 nM in experiment [2].
On to `Cc1c(C(=O)N2CCNC(=O)C2)sc2c1c(=O)n(CCc1ccccc1F)c(=O)n2CCC(F)(F)F` [Example 29, 3-[2-(2-Fluorophenyl)ethyl]-5-methyl-6-[(3-oxopiperazin-1-yl)carbonyl]-1-(3,3,3-trifluoropropyl)thieno[2,3-d]pyrimidine-2,4(1H,3H)-dione], for which the IC50 in experiment [1] turned out to be 23 nM; in experiment [2] it was 21 nM.
Take `CCn1c(=O)c2c(C)c(C(=O)N3CCC(C)(O)CC3)sc2n(CCC(F)(F)F)c1=O` [Example 21, 3-Ethyl-6-[(4-hydroxy-4-methylpiperidin-1-yl)carbonyl]-5-methyl-1-(3,3,3-trifluoropropyl)thieno [2,3-d]pyrimidine-2,4(1H,3H)-dione]: the IC50 in experiment [1] came to 69 nM; in experiment [2] it was 25 nM.
In the case of `Cc1c(C(=O)N2CCC(O)CC2)sc2c1c(=O)n(CCc1ccccc1)c(=O)n2CCC=C(F)F` [Example 2, 1-(4,4-Difluorobut-3-en-1-yl)-6-[(4-hydroxypiperidin-1-yl)carbonyl]-5-methyl-3-(2-phenylethyl)thieno[2,3-d]pyrimidine-2,4(1H,3H)-dione], the IC50 was 53 nM in experiment [1] and 44 nM in experiment [2].
Take `Cc1c(C(=O)N2CCC(O)CC2)sc2c1c(=O)n(CCc1ccccc1F)c(=O)n2CCC(F)(F)F` [Example 4, 3-[2-(2-Fluorophenyl)ethyl]-6-[(4-hydroxypiperidin-1-yl)carbonyl]-5-methyl-1-(3,3,3-trifluoropropyl)thieno[2,3-d]pyrimidine-2,4(1H,3H)-dione]: the results for the IC50 in experiment [1] and in experiment [2] were 39 nM and 25 nM, respectively.
As to `O=C(c1sc2c(c1C(F)(F)F)c(=O)n(CCc1ccccc1)c(=O)n2CCC(F)(F)F)N1CCC(O)CC1` [Example 24, 6-[(4-Hydroxypiperidin-1-yl)carbonyl]-3-(2-phenylethyl)-5-(trifluoromethyl)-1-(3,3,3-trifluoropropyl)thieno[2,3-d]pyrimidine-2,4(1H,3H)-dione], the IC50 in experiment [1] stood at 10 nM; in experiment [2], 13 nM.
In the case of `Cc1c(C(=O)N2CCNC(=O)C2)sc2c1c(=O)n(CCc1ccccc1Cl)c(=O)n2CCC(F)(F)F` [Example 31, 3-[2-(2-Chlorophenyl)ethyl]-5-methyl-6-[(3-oxopiperazin-1-yl)carbonyl]-1-(3,3,3-trifluoropropyl)thieno[2,3-d]pyrimidine-2,4(1H,3H)-dione], the half-inhibitory concentration (IC50) in experiment [1] and in experiment [2] was 16 nM in each case.
Regarding `Cc1c(C(=O)N2CCC(O)CC2)sc2c1c(=O)n(CCc1ccccc1)c(=O)n2CCC(F)(F)F` [Example 1, 6-[(4-Hydroxypiperidin-1-yl)carbonyl]-5-methyl-3-(2-phenylethyl)-1-(3,3,3-trifluoropropyl)thieno[2,3-d]pyrimidine-2,4(1H,3H)-dione], the figures for the IC50 in experiment [1] and in experiment [2] were 59 nM and 37 nM, respectively.
The corresponding values for `CCc1c(C(=O)N2CCC(O)(CO)CC2)sc2c1c(=O)n(CC)c(=O)n2CCC(F)(F)F` [Example 89, 3,5-Diethyl-6-{[4-hydroxy-4-(hydroxymethyl)piperidin-1-yl]carbonyl}-1-(3,3,3-trifluoropropyl)thieno[2,3-d]pyrimidine-2,4(1H,3H)-dione] are 48 nM and 35 nM.
As for `Cc1c(C(=O)N2CCC(O)CC2)sc2c1c(=O)n(CCc1cccnc1)c(=O)n2CCC=C(F)F` [Example 16, 1-(4,4-Difluorobut-3-en-1-yl)-6-[(4-hydroxypiperidin-1-yl)carbonyl]-5-methyl-3-[2-(pyridin-3-yl)ethyl]thieno[2,3-d]pyrimidine-2,4(1H,3H)-dione], the IC50 amounted to 89 nM in experiment [1] and 38 nM in experiment [2].
`COC(Cn1c(=O)c2c(C)c(C(=O)N3CCC(O)CC3)sc2n(CCC(F)(F)F)c1=O)C(F)(F)F` (single isomer, unassigned) [Example 108, 6-[(4-Hydroxypiperidin-1-yl)carbonyl]-5-methyl-3-(3,3,3-trifluoro-2-methoxypropyl)-1-(3,3,3-trifluoropropyl)thieno[2,3-d]pyrimidine-2,4(1H,3H)-dione]: the IC50 in experiment [2] worked out at 580 nM.
Still for that read-out and setting: next, `CCc1c(C(=O)N2CCC(O)(CC)CC2)sc2c1c(=O)n(CC)c(=O)n2CCC(F)(F)F` [Example 128, 3,5-Diethyl-6-[(4-ethyl-4-hydroxypiperidin-1-yl)carbonyl]-1-(3,3,3-trifluoropropyl)thieno[2,3-d]pyrimidine-2,4(1H,3H)-dione]: 13 nM; `CCn1c(=O)c2c(C(F)F)c(C(=O)N3CCNC(=O)C3)sc2n(CCC(F)(F)F)c1=O` [Example 131, 5-(Difluoromethyl)-3-ethyl-6-[(3-oxopiperazin-1-yl)carbonyl]-1-(3,3,3-trifluoropropyl)thieno[2,3-d]pyrimidine-2,4(1H,3H)-dione]: 34 nM.
Same read-out and setting: next, `COC(Cn1c(=O)c2c(C)c(C(=O)N3CCC(O)(CO)CC3)sc2n(CCC(F)(F)F)c1=O)C(F)(F)F` (single isomer, unassigned) [Example 114, 6-{[4-Hydroxy-4-(hydroxymethyl)piperidin-1-yl]carbonyl}-5-methyl-3-(3,3,3-trifluoro-2-methoxypropyl)-1-(3,3,3-trifluoropropyl)thieno[2,3-d]pyrimidine-2,4(1H,3H)-dione]: 110 nM.
Turning to `Cc1c(C(=O)N2CCC(O)CC2)sc2c1c(=O)n(CC(C)(C)c1ccccc1)c(=O)n2CCC(F)(F)F` [Example 50, 6-[(4-Hydroxypiperidin-1-yl)carbonyl]-5-methyl-3-(2-methyl-2-phenylpropyl)-1-(3,3,3-trifluoropropyl)thieno[2,3-d]pyrimidine-2,4(1H,3H)-dione], in experiment [2], the 50% inhibitory concentration (IC50) stood at 150 nM.
For the compound `Cc1c(C(=O)N2CCC(O)(CO)CC2)sc2c1c(=O)n(CC(F)(F)c1ccccc1)c(=O)n2CCC(F)(F)F` [Example 70, 3-(2,2-Difluoro-2-phenylethyl)-6-{[4-hydroxy-4-(hydroxymethyl)piperidin-1-yl]carbonyl}-5-methyl-1-(3,3,3-trifluoropropyl)thieno [2,3-d]pyrimidine-2,4(1H,3H)-dione], in experiment [2], the IC50 amounted to 28 nM.
Same read-out and setting: next, `Cc1c(C(=O)N2CCNC(=O)C2)sc2c1c(=O)n(CCc1ccccc1)c(=O)n2CCOC(F)(F)F` [Example 129, 5-Methyl-6-[(3-oxopiperazin-1-yl)carbonyl]-3-(2-phenylethyl)-1-[2-(trifluoromethoxy)ethyl]thieno[2,3-d]pyrimidine-2,4(1H,3H)-dione]: 12 nM; `CCc1c(C(=O)N2CCC(O)CC2)sc2c1c(=O)n(CC)c(=O)n2CCC(F)(F)F` [Example 87, 3,5-Diethyl-6-[(4-hydroxypiperidin-1-yl)carbonyl]-1-(3,3,3-trifluoropropyl)thieno[2,3-d]pyrimidine-2,4(1H,3H)-dione]: 26 nM; `Cc1c(C(=O)N2CCC(O)CC2)sc2c1c(=O)n(CCc1cccc(Cl)c1)c(=O)n2CCC(F)(F)F` [Example 10, 3-[2-(3-Chlorophenyl)ethyl]-6-[(4-hydroxypiperidin-1-yl)carbonyl]-5-methyl-1-(3,3,3-trifluoropropyl)thieno[2,3-d]pyrimidine-2,4(1H,3H)-dione]: 310 nM.
Still for that read-out and setting: next, `Cc1c(C(=O)N2CCC(O)CC2)sc2c1c(=O)n(CCc1ccccc1)c(=O)n2CCOC(F)(F)F` [Example 99, 6-[(4-Hydroxypiperidin-1-yl)carbonyl]-5-methyl-3-(2-phenylethyl)-1-[2-(trifluoromethoxy)ethyl]thieno[2,3-d]pyrimidine-2,4(1H,3H)-dione]: 10 nM; `Cc1c(C(=O)N2CCC(O)CC2)sc2c1c(=O)n(CC(F)(F)c1ccccc1)c(=O)n2CCC(F)(F)F` [Example 51, 3-(2,2-Difluoro-2-phenylethyl)-6-[(4-hydroxypiperidin-1-yl)carbonyl]-5-methyl-1-(3,3,3-trifluoropropyl)thieno[2,3-d]pyrimidine-2,4(1H,3H)-dione]: 16 nM.
